Laboratory results: ChEMBL document CHEMBL3044728, “Synthesis and biological activity of new (E)-alpha-(Methoxyimino)benzeneacetate derivatives containing a substituted pyrazole ring” (2010)

Key:
Format in all cases: functional
[1] = test system: Pseudoperonospora cubensis; assay: Antifungal activity against Pseudoperonospora cubensis assessed as inhibition at 6.25 mg/L relative to control
[2] = test system: Blumeria graminis; assay: Antifungal activity against Blumeria graminis assessed as inhibition at 400 mg/L relative to control
[3] = test system: Pseudoperonospora cubensis; assay: Antifungal activity against Pseudoperonospora cubensis assessed as inhibition at 25 mg/L relative to control
[4] = test system: Phytophthora infestans; assay: Antifungal activity against Phytophthora infestans assessed as inhibition at 25 mg/L relative to control
[5] = test system: Pseudoperonospora cubensis; assay: Antifungal activity against Pseudoperonospora cubensis assessed as inhibition at 400 mg/L relative to control
[6] = test system: Blumeria graminis; assay: Antifungal activity against Blumeria graminis assessed as inhibition at 1.56 mg/L relative to control
[7] = test system: Blumeria graminis; assay: Antifungal activity against Blumeria graminis assessed as inhibition at 6.25 mg/L relative to control
[8] = test system: Pyricularia oryzae; assay: Antifungal activity against Magnaporthe oryzae assessed as inhibition at 25 mg/L relative to control
[9] = test system: Phytophthora infestans; assay: Antifungal activity against Phytophthora infestans assessed as inhibition at 0.92 mg/L relative to control
[10] = test system: Pyricularia oryzae; assay: Antifungal activity against Magnaporthe oryzae assessed as inhibition at 0.92 mg/L relative to control
[11] = test system: Myzus persicae; assay: Insecticidal activity against Myzus persicae (green peach aphid) at 600 mg/L relative to control

Row | SMILES | inhibition at 6.25 µg/mL [1] [%] | inhibition at 400 µg/mL [2] [%] | inhibition at 25 µg/mL [3] [%] | inhibition at 25 µg/mL [4] [%] | inhibition at 400 µg/mL [5] [%] | inhibition at 1.56 µg/mL [6] [%] | inhibition at 6.25 µg/mL [7] [%] | inhibition at 25 µg/mL [8] [%] | inhibition at 0.92 µg/mL [9] [%] | inhibition at 0.92 µg/mL [10] [%] | Activity [11] [%]
1 | CO/N=C(/C(=O)OC)c1ccccc1COc1c(C)c(-c2ccc(Cl)cc2)nn1C | 100 | 100 | 100 | 100 | 100 | 98 | 100 | 50 | 100 |  | 
2 | CNC(=O)/C(=N/OC)c1ccccc1COc1c(C)c(-c2ccc(OCC(F)(F)F)cc2)nn1C | 30 | 100 | 80 | 100 | 100 | 40 | 100 | 80 | 50 | 50 | 
3 | CCOc1ccc(-c2nn(C)c(OCc3ccccc3/C(=N\OC)C(=O)NC)c2C)cc1 |  | 100 | 20 | 100 | 98 | 70 | 100 | 100 | 50 | 100 | 
4 | CCc1ccc(-c2nn(C)c(OCc3ccccc3/C(=N\OC)C(=O)NC)c2C)cc1 |  | 100 |  | 100 | 50 | 90 | 100 | 100 | 80 | 0 | 
5 | CNC(=O)/C(=N/OC)c1ccccc1COc1c(C)c(-c2ccc(C(C)(C)C)cc2)nn1C |  | 100 | 20 | 100 | 95 | 0 | 0 | 100 | 40 | 100 | 
6 | CNC(=O)/C(=N/OC)c1ccccc1COc1c(C)c(-c2ccc(C)c(C)c2)nn1C | 40 | 100 | 100 | 100 | 100 | 55 | 100 | 100 | 100 | 80 | 
7 | CNC(=O)/C(=N/OC)c1ccccc1COc1c(C)c(-c2ccc(C)cc2C)nn1C | 100 | 100 | 100 | 100 | 100 | 65 | 100 | 100 | 100 | 50 | 
8 | CNC(=O)/C(=N/OC)c1ccccc1COc1c(C)c(-c2ccc(C)cc2)nn1C |  | 100 |  | 100 | 65 | 40 | 95 | 0 | 100 |  | 
9 | CNC(=O)/C(=N/OC)c1ccccc1COc1cc(-c2ccccc2Cl)nn1C |  | 100 | 40 | 100 | 90 | 55 | 90 | 0 | 0 |  | 
10 | CNC(=O)/C(=N/OC)c1ccccc1COc1c(C)c(-c2ccc(Cl)cc2)nn1C |  | 100 | 40 | 100 | 80 | 85 | 100 | 0 |  |  | 
11 | CNC(=O)/C(=N/OC)c1ccccc1COc1cc(-c2ccc(OC)cc2)nn1C |  | 100 | 30 | 100 | 98 |  | 0 | 100 | 0 | 80 | 
12 | CNC(=O)/C(=N/OC)c1ccccc1COc1cc(-c2ccc(C)cc2C)nn1C | 70 | 100 | 100 | 100 | 100 | 30 | 100 | 100 | 100 | 50 | 
13 | CNC(=O)/C(=N/OC)c1ccccc1COc1cc(-c2ccc(C(C)(C)C)cc2)nn1C |  | 0 | 0 | 100 | 80 |  |  | 100 | 50 | 50 | 
14 | CNC(=O)/C(=N/OC)c1ccccc1COc1cc(-c2ccccc2)nn1C | 70 | 50 | 100 |  | 100 |  |  | 0 |  |  | 
15 | CO/N=C(/C(=O)OC)c1ccccc1COc1c(C)c(-c2ccc(OCC(F)(F)F)cc2)nn1C |  | 100 | 0 | 50 | 80 | 15 | 70 | 100 |  | 80 | 
16 | CO/N=C(/C(=O)OC)c1ccccc1COc1c(C)c(-c2ccc(OC)cc2)nn1C | 15 | 100 | 55 | 100 | 100 | 30 | 85 | 100 | 50 | 80 | 
17 | CO/N=C(/C(=O)OC)c1ccccc1COc1c(C)c(-c2ccc(C(C)(C)C)cc2)nn1C |  | 70 |  | 0 | 40 |  |  | 50 |  |  | 
18 | CCc1ccc(-c2nn(C)c(OCc3ccccc3/C(=N\OC)C(=O)OC)c2C)cc1 | 50 | 100 | 70 | 100 | 98 | 100 | 100 | 50 | 80 |  | 
19 | CO/N=C(/C(=O)OC)c1ccccc1COc1c(C)c(-c2ccc(C)cc2C)nn1C | 98 | 100 | 100 | 100 | 100 | 75 | 100 | 100 | 100 | 80 | 
20 | CO/N=C(/C(=O)OC)c1ccccc1COc1c(C)c(-c2ccc(C)cc2)nn1C |  | 100 | 60 | 100 | 95 | 100 | 100 | 50 | 100 |  | 
21 | CO/N=C(/C(=O)OC)c1ccccc1COc1c(C)c(-c2ccc(C)c(C)c2)nn1C | 70 | 100 | 75 | 100 | 100 | 60 | 100 | 100 | 100 | 80 | 
22 | CO/N=C(/C(=O)OC)c1ccccc1COc1cc(-c2ccccc2OC)nn1C |  | 100 |  | 0 | 50 | 40 | 90 | 100 |  | 50 | 
23 | CO/N=C(/C(=O)OC)c1ccccc1COc1cc(-c2ccccc2Cl)nn1C |  | 100 | 30 | 100 | 80 | 45 | 75 | 100 | 0 | 0 | 
24 | CO/N=C(/C(=O)OC)c1ccccc1COc1cc(-c2ccc(OC)cc2)nn1C |  | 100 | 50 | 100 | 98 |  | 10 | 0 | 0 |  | 
25 | CO/N=C(/C(=O)OC)c1ccccc1COc1cc(-c2ccc(C(C)(C)C)cc2)nn1C |  | 0 | 0 | 100 | 95 |  |  | 100 | 60 | 80 | 
26 | CO/N=C(/C(=O)OC)c1ccccc1COc1cc(-c2ccccc2)nn1C |  | 70 | 70 | 0 | 95 |  |  | 0 |  |  | 100
27 | CO/C=C(/C(=O)OC)c1ccccc1Oc1cc(Oc2ccccc2C#N)ncn1 [AZOXYSTROBIN] | 95 | 100 | 100 |  | 100 | 60 | 100 | 100 |  |  | 
28 | CO/N=C(/C(=O)OC)c1ccccc1COc1ccccc1C [KRESOXIM-METHYL] | 0 | 100 | 35 | 100 |  | 100 | 100 | 100 |  |  | 
